Assay results: the supplement of paper PMC5908809

How the values were obtained:
[1] = tested on: normal NK cells expanded with K562-aAPC; test: percent inhibition of viability; higher = more inhibition; details: 72 h, IL-2 2.5 ng/mL
Method: (§1)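 Drug sensitivity and resistance testing on K562-aAPC-expanded normal NK cells: 5 concentrations (10-fold steps over a 10,000-fold range), 72 h at 37 °C, viability by CellTiter-Glo normalised to DMSO and benzethonium chloride controls; DSS from the fitted curve.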

[2] = tested on: normal primary NK cells, pool 1 (3 donors), resting (IL-2 0 ng/mL); test: as above; details: 72 h
[3] = tested on: normal primary NK cells, pool 1 (3 donors) (IL-2 2.5 ng/mL); test: as above; details: 72 h
[4] = tested on: IMC-1 (IL-2 20 ng/mL); test: as above; details: 72 h
[5] = tested on: KAI3 (IL-2 2.5 ng/mL); test: as above; details: 72 h
[6] = tested on: NK-YS (IL-2 2.5 ng/mL); test: as above; details: 72 h
[7] = tested on: NKL (IL-2 2.5 ng/mL); test: as above; details: 72 h
[8] = tested on: DERL-7 (IL-2 2.5 ng/mL); test: as above; details: 72 h
[9] = tested on: KHYG-1 (IL-2 2.5 ng/mL); test: as above; details: 72 h
[10] = tested on: YT (IL-2 2.5 ng/mL); test: as above; details: 72 h
[11] = tested on: normal primary NK cells, pool 3 (3 donors) (IL-2 2.5 ng/mL); test: as above; details: 72 h
[12] = tested on: SNK-6 (IL-2 2.5 ng/mL); test: as above; details: 72 h
[13] = tested on: NK-92 (IL-2 2.5 ng/mL); test: as above; details: 72 h
[14] = tested on: normal primary NK cells, pool 2 (3 donors) (IL-2 2.5 ng/mL); test: as above; details: 72 h
[15] = tested on: normal NK cells expanded with K562-aAPC; test: drug sensitivity score (DSS) (DSS units); higher = more sensitive; extreme values may be limits of the assay; details: 72 h; IL-2 2.5 ng/mL
Method: as §1

[16] = tested on: normal primary NK cells, pool 1 (3 donors), resting (IL-2 0 ng/mL); test: as above; details: 72 h
[17] = tested on: normal primary NK cells, pool 1 (3 donors) (IL-2 2.5 ng/mL); test: as above; details: 72 h
[18] = tested on: IMC-1 (IL-2 20 ng/mL); test: as above; details: 72 h
[19] = tested on: KAI3 (IL-2 2.5 ng/mL); test: as above; details: 72 h
[20] = tested on: NK-YS (IL-2 2.5 ng/mL); test: as above; details: 72 h
[21] = tested on: NKL (IL-2 2.5 ng/mL); test: as above; details: 72 h
[22] = tested on: DERL-7 (IL-2 2.5 ng/mL); test: as above; details: 72 h
[23] = tested on: KHYG-1 (IL-2 2.5 ng/mL); test: as above; details: 72 h
[24] = tested on: YT (IL-2 2.5 ng/mL); test: as above; details: 72 h
[25] = tested on: normal primary NK cells, pool 3 (3 donors) (IL-2 2.5 ng/mL); test: as above; details: 72 h
[26] = tested on: SNK-6 (IL-2 2.5 ng/mL); test: as above; details: 72 h
[27] = tested on: NK-92 (IL-2 2.5 ng/mL); test: as above; details: 72 h
[28] = tested on: normal primary NK cells, pool 2 (3 donors) (IL-2 2.5 ng/mL); test: as above; details: 72 h

NS(=O)(=O)OC[C@@H]1C[C@@H](n2ccc3c(N[C@H]4CCc5ccccc54)ncnc32)C[C@@H]1O [Pevonedistat] (max concentration tested 10000 nM)
percent inhibition of viability [%]
Details | 1 nM | 10 nM | 100 nM | 1000 nM | 10000 nM
[1] | -5 | -5.72 | -9.68 | 70.2 | 80.3
[2] | 1.82 | 21.5 | -26.7 | -18.9 | -22.4
[3] | -6.09 | 19.2 | 23.3 | 57.4 | 69.8
[4] | 0.59 | 6.87 | 46.6 | 92.8 | 98.2
[5] | 9.59 | 12.4 | 70.2 | 95 | 100
[6] | 0.95 | -1.33 | 3.83 | 78.1 | 98.4
[7] | -12.9 | -14.6 | -16.9 | 92.3 | 104
[8] | 1.08 | 2.36 | -6.58 | 91.5 | 101
[9] | 3.14 | -1.1 | 71.7 | 105 | 106
[10] | -2.08 | 2.87 | 62.7 | 79.6 | 82.8
[11] | -5.71 | 5 | 10.3 | 68.8 | 81
[12] | 23.6 | 3.72 | 89 | 97.2 | 99.5
[13] | -8.15 | 6.99 | 1.09 | 75.8 | 109
[14] | -6.66 | 4.92 | 9.96 | 45 | 64.2

Details | drug sensitivity score
[15] | 12.6
[16] | 0
[17] | 14
[18] | 22.6
[19] | 27.2
[20] | 15
[21] | 16.1
[22] | 16.3
[23] | 26.2
[24] | 22.8
[25] | 14
[26] | 29
[27] | 14.2
[28] | 9.66

COc1nc(N)nc2c1ncn2[C@@H]1O[C@H](CO)[C@@H](O)[C@@H]1O [Nelarabine] (max concentration tested 10000 nM)
percent inhibition of viability [%]
Details | 1 nM | 10 nM | 100 nM | 1000 nM | 10000 nM
[1] | 0.53 | 1.13 | 1.94 | 15.5 | 66.8
[2] | 14.4 | 22.7 | 58.9 | 88.3 | 91.7
[3] | -10.4 | -4.07 | 23.9 | 61.1 | 92.1
[4] | -3.75 | -1.52 | -5.24 | -11.7 | -10.4
[5] | 15.6 | 16.4 | 12.6 | 25.8 | 53.3
[6] | 2.42 | -3.62 | 0.15 | 3.98 | 14.6
[7] | 5.77 | 8.18 | 3.83 | 10.4 | 56.7
[8] | 1.44 | 7.77 | 2.31 | 12.4 | 46.1
[9] | 4.68 | -0.73 | -1.55 | -1.11 | 27.2
[10] | 2.6 | -3.18 | 0.56 | 1.65 | 5.92
[11] | 11.4 | 8.39 | 27.7 | 65.5 | 82.3
[12] | 2.48 | -13.9 | -9.19 | -25.6 | -2.36
[13] | 8.71 | -6.85 | 4.79 | 8.69 | 32
[14] | -2.48 | 5 | 21.2 | 59.8 | 82.4

Details | drug sensitivity score
[15] | 6.13
[16] | 25.3
[17] | 14.4
[18] | 0
[19] | 8.27
[20] | 0.54
[21] | 4.79
[22] | 4.29
[23] | 1.02
[24] | 0
[25] | 15.7
[26] | 0
[27] | 2.5
[28] | 13.8
